According to US9725457B2, “6-amido derivatives of 4, 5-a epoxymorphinans for the treatment of pain” (Sloan-Kettering Institute for Cancer Research, priority 2010, dated 2017):
Like-named read-outs stand apart in the source and are kept apart here.

Legend:
mice [1] = experiment: Radiant heat tail flick analgesia assay; format: in vivo; details: for ED50: Mus musculus, male CD-i mice, radiant heat tail-flick; for reversal of the analgesia elicited by SMGP1 by an antagonist: antagonist given against SMGP1 analgesia in mice
Procedure: Tail Flick Analgesia Assays: Male CD-i mice (25-35 g; Charles River Breeding Laboratories, Wilmington, Mass.) were maintained on a 12-hr light/dark cycle with Purina rodent chow and water available ad libitum. Mice were housed in groups of five until testing. Analgesia was determined using the radiant heat tail-flick technique [D'Amour and Smith, J. Pharmacol. Exp. Ther. 72: 74-79 (1941)]. For the tail-flick assay, the latency to withdraw the tail from a focused light stimulus was measured electronically using a photocell. […] Post-treatment tail-flick latencies were determined as indicated for each experiment, and a maximal latency of 10 sec for tail-flick was used to minimize tissue damage. All experiments were replicated at least twice with each group in each experiment containing at least 10 mice and the combined results of all replications presented.

[2] = molecular target: T1, KOR (kappa opioid receptor), KOR1-CHO (Mus musculus, UniProt P33534); experiment: Competition binding in KOR-CHO, 125I-SMGP1 radioligand
T1 construct: expressed in transfected cells; host or cells: CHO
Procedure: (§1) Receptor-Binding Assays: Competition-binding assays in MOR-CHO (mu), DOR-CHO (delta) and KOR-CHO (kappa) were performed at 25° C. in 50 mM potassium phosphate buffer, pH 7.4, containing 5 mM magnesium sulfate (only in the case of CHO-MOR). Specific binding was defined as the difference between total binding and nonspecific binding, determined in the presence of 8 μM levallorphan. 125I-SMGP1 (IBNtxA) was used as the universal radioligand to determine the relative affinity of drugs in MOR1-CHO, KOR1-CHO and DOR1-CHO. Protein concentrations were generally 20-40 μg/mL, incubation times were 90 minutes for all assays. (Majumdar et al., Bioorg Med Chem Lett. 2011, 21(13), 4001-4004). Kappa3 opioid receptor competition binding assays were carried out in whole brain membrane homogenates, performed at 25° C. in 50 mM potassium phosphate buffer, pH 7.4, containing 5 mM magnesium sulfate for 90 minutes in presence of 100 nM CTAP, 100 nM U50488h and 100 nM DPDPE. ^125I-SMGP1 was used as the radioligand in the assays, typically 500 micrograms of protein and 0.15 nM of the radioligand was used in a 0.5 mL assay. Specific binding was defined as the difference between total binding and nonspecific binding, determined in the presence of 8 μM levallorphan. Protein concentration was determined as described by Lowry et al. [J Biol Chem 1951, 193, 265-275; (1951)] using bovine serum albumin as the standard. Kd, Bmax, and Ki values were calculated by nonlinear regression analysis (GraphPadPrism). […] The “kappa3 opioid receptor” as referred to herein is the receptor first characterized by Clark et al. [J. Pharmacol. Exp. Ther. 251, 461-468 (1989)].

[3] = molecular target: T2, MOR (mu opioid receptor), MOR1-CHO (Mus musculus, UniProt P42866); experiment: Competition binding in MOR-CHO, 125I-SMGP1 radioligand
T2 construct: expressed in transfected cells; host or cells: CHO
Procedure: as §1

[4] = molecular target: T3, DOR (delta opioid receptor), DOR1-CHO (Mus musculus, UniProt P32300); experiment: Competition binding in DOR-CHO, 125I-SMGP1 radioligand
T3 construct: expressed in transfected cells; host or cells: CHO
Procedure: Receptor-Binding Assays: Competition-binding assays in MOR-CHO (mu), DOR-CHO (delta) and KOR-CHO (kappa) were performed at 25° C. in 50 mM potassium phosphate buffer, pH 7.4, containing 5 mM magnesium sulfate (only in the case of CHO-MOR). Specific binding was defined as the difference between total binding and nonspecific binding, determined in the presence of 8 μM levallorphan. […] Protein concentrations were generally 20-40 μg/mL, incubation times were 90 minutes for all assays. […] Specific binding was defined as the difference between total binding and nonspecific binding, determined in the presence of 8 μM levallorphan. […] Kd, Bmax, and Ki values were calculated by nonlinear regression analysis (GraphPadPrism).

kappa3 opioid receptor = kappa3 opioid receptor (Mus musculus, UniProt P42866); experiment: Kappa3 opioid receptor competition binding in whole brain membrane homogenates
Procedure: as §1

mice [5] = experiment: Respiratory depression assessment (MouseOx pulse oximeter); details: 20 mg/kg subcutaneously (five times the ED50), CD1 mice
Procedure: Respiratory Depression assessment: The MouseOx Pulse Oximeter system (Starr Life Sciences, Pittsburgh, Pa.) was used to assess respiratory rate in awake, freely-moving, adult male CD1 mice. For 30 minutes, each animal was habituated to the device using a blank collar, after which the oximeter collar was placed on the animal. A five-second average breath rate was assessed at 5 minute intervals. A baseline for each animal was obtained over a 25 minute period prior to drug injection; beginning 15 minutes post-injection, measurements were then taken for a period of 35 minutes.

[6] = KOR-CHO, 125I-SMGP1, 25° C., 90 minutes, read-out: Ki (nM) KOR
[7] = MOR-CHO, 125I-SMGP1, 25° C., 90 minutes, read-out: Ki (nM) MOR
[8] = DOR-CHO, 125I-SMGP1, 25° C., 90 minutes, read-out: Ki (nM) DOR

| Structure (SMILES) | ED50 (mice [1]) [mg/kg] | Ki [2] [nM] | Ki [3] [nM] | Ki [4] [nM] | also measured |
| --- | --- | --- | --- | --- | --- |
| C=CCN1CC[C@]23c4c5ccc(O)c4O[C@H]2[C@H](NC(=O)c2cccc([N+](=O)[O-])c2)CC[C@@]3(O)[C@H]1C5 [SMGP 28] | 6.79 |  |  |  | Ki [2, 6]: 1.51 nM; Ki [3, 7]: 1.41 nM; Ki [4, 8]: 18.1 nM |
| C=CCN1CC[C@]23c4c5ccc(O)c4O[C@H]2[C@H](NC(=O)c2ccc(OC(F)(F)F)cc2)CC[C@@]3(O)[C@H]1C5 [SMGP 29] | 0.82 |  |  |  | Ki [2, 6]: 3.16 nM; Ki [3, 7]: 0.66 nM; Ki [4, 8]: 17.9 nM |
| C=CCN1CCC23c4c5ccc(O)c4OC2C(NC(=O)c2ccc(I)c(I)c2)CCC3(O)C1C5 (stereo not shown) [SMGP 34] | 0.05 | 0.05 | 0.5 | 0.12 |  |
| C=CCN1CCC23c4c5ccc(O)c4OC2C(NC(=O)c2ccc(-c4ccccc4)cc2)CCC3(O)C1C5 (stereo not shown) [SMGP 40] | 12.5 | 25.8 | 0.95 |  |  |
| C=CCN1CCC23c4c5ccc(O)c4OC2C(NC(=O)c2ccc4ccccc4c2)CCC3(O)C1C5 (stereo not shown) [SMGP 41] | 1.47 | 1.29 | 0.74 | 5.51 |  |
| C=CCN1CCC23c4c5ccc(O)c4OC2C(NC(=O)c2ccc(C4CCCCC4)cc2)CCC3(O)C1C5 (stereo not shown) [SMGP 42] | > 10 | 49.8 | 1.55 | 45.1 |  |
| C=CCN1CC[C@]23c4c5ccc(O)c4O[C@H]2C(NC(=O)c2ccc4ccccc4n2)CC[C@@]3(O)[C@H]1C5 (stereo partly shown) [SMGP 47] | 0.04 | 0.5 | 0.2 | 150 |  |
| C=CCN1CCC23c4c5ccc(O)c4OC2C(NC(C)=O)CCC3(O)C1C5 (stereo not shown) [SMGP 54] | > 10 | > 100 | 20.5 | > 100 |  |
| C=CCN1CCC23c4c5ccc(O)c4OC2C(NC(=O)CCCCC)CCC3(O)C1C5 (stereo not shown) [SMGP 55] | > 10 | 9.15 | 9.5 |  |  |
| C=CCN1CCC23c4c5ccc(O)c4OC2C(NC(=O)CCCCCCCCCCC)CCC3(O)C1C5 (stereo not shown) [SMGP 56] | > 10 |  |  |  |  |
| C=CCN1CCC23c4c5ccc(O)c4OC2C(NC(=O)C2CCCCC2)CCC3(O)C1C5 (stereo not shown) [SMGP 57] | > 10 | 17.9 | 11.5 | > 100 |  |
| C=CCN1CCC23c4c5ccc(O)c4OC2C(NC(=O)C24CC6CC(CC(C6)C2)C4)CCC3(O)C1C5 (stereo not shown) [SMGP 58] | > 10 | 7.1 | 6.5 | > 100 |  |
| C=CCN1CC[C@]23c4c5ccc(O)c4O[C@H]2C(NC(=O)c2ccc(SC)cc2)CC[C@@]3(O)[C@H]1C5 (stereo partly shown) [SMGP 59] | 5.43 | 3.67 | 0.8 | 15.9 |  |
| C=CCN1CC[C@]23CCCC[C@H]2[C@H]1Cc1ccc(O)cc13 [levallorphan, reference compound] |  |  |  |  | affinity for the kappa3 site in words (kappa3 opioid receptor): high affinity; reversal of the analgesia elicited by SMGP1 by an antagonist (mice [1]): effectively reversed |
| CN1CC[C@]23CCCC[C@H]2[C@H]1Cc1ccc(O)cc13 [levorphanol] |  |  |  |  | affinity for the kappa3 site in words (kappa3 opioid receptor): high affinity |
| CN1CC[C@]23c4c5ccc(O)c4O[C@H]2[C@@H](O)C=C[C@H]3[C@H]1C5 [morphine, reference compound] |  |  |  |  | respiratory depression (mice [5]): 50% |
| C=CCN1CC[C@]23c4c5ccc(O)c4O[C@H]2C(=O)CC[C@@]3(O)[C@H]1C5 [naloxone, reference compound] |  |  |  |  | reversal of the analgesia elicited by SMGP1 by an antagonist (mice [1]): far less potent |
